Data on three compounds can be found in PMC11570452, “MOTS-c modulates skeletal muscle function by directly binding and activating CK2” (iScience, 2024).

Data set [1] relates to skeletal muscle (gastrocnemius) glucose uptake. Kind of data set: In vivo skeletal muscle 2-deoxyglucose (2DG) uptake. On the set-up: species or system mouse (C57BL/6J). The protocol:
2-deoxyglucose (2-DG) uptake experiment: Male C57BL/6J mice at 14–15 weeks of age were received sham injection (injected nothing) for seven days before the experiment to acclimated to the invasive stimulus by the injection. A selective CK2 inhibitor CX-4945 (MCE) was dissolved in 0.9% saline containing 5% DMSO. After 120 min of fasting, mice were intraperitoneally injected with a CK2 inhibitor at 25 mg/kg or vehicle.[45] Two hours later, mice were injected insulin at 0.75 U/kg (MilliporeSigma) and MOTS-c at 7.5 mg/kg (GenScript) or sterilized water. Then 10 min later, 5 μg of 2DG (Sigma-Aldrich) was injected.[46] Mice were euthanized 45 min after 2DG injection and gastrocnemius muscle was collected. The collected samples were stored at −80°C for further analyses. The entire gastrocnemius muscle was used for the analysis to avoid potential bias.
To measure glucose uptake into mouse skeletal muscle, 2-DG uptake measurement kit was used (Cosmo Bio). Gastrocnemius muscle samples were homogenized in 10 mM tris-HCL (pH. 8.1) and then incubated at 95°C for 15 min. Samples were centrifuged for 15 min at 17,800 g (4°C), and the supernatant was diluted in 10 mM tris-HCl.[66] Diluted samples ([…]) were used for further analysis according to the manufacturer’s instructions (Cosmo Bio Co.).

The target in the next data set is T1, CK2α (Homo sapiens, UniProt P68400).
T1 construct: purchased GenScript
Kind of data set: Surface plasmon resonance (Biacore assay), CK2α. The data set is classed as binding. Particulars: SPR, peptide immobilized, CK2α flowed. The text has this: Figure 2 MOTS-c directly binds and activates CK2 in cell-free systems (A–C) Dot blot assays with (A) CK2 complex (contains both CK2α and CK2β subunits) immobilized, MOTS-c flowed over the membrane, and detected by MOTS-c antibody. (B–C) MOTS-c immobilized, CK2 complex flowed over the membrane, and detected by CK2α (B) and CK2β (C) antibodies. (D) CK2α or CK2β immobilized, MOTS-c flowed over the membrane, and detected by MOTS-c antibody. FO, flow over; IB, immunoblotting. (E): Surface plasmon resonance (Biacore assay) of MOTS-c (10 μg/mL) and CK2α (2.5 nM, 5.0 nM, 10 nM, and 20 nM). MOTS-c was immobilized on the sensor chip and CK2α flowed over the sensor chip. KD, dissociation constant. (F) Molecular docking simulation of the binding between MOTS-c and CK2α by using AlphaFold2. (G) CK2 activity assessed by kinase activity assay with/without MOTS-c in cell-free condition. […]
The kinetics of MOTS-c WT/K14Q (GenScript) and CK2α (GenScript)/β (IBL) were assessed by using surface plasmon resonance (Biacore T200, Cytiva). […] Then, since we detected the binding signal only with CK2α, CK2α was flowed (30 μL/min) over the sensor chip at 2.5 nM, 5.0 nM, 10 nM, and 20 nM in running buffer (0.01M HEPES, 0.15 M NaCl, 0.3 mM EDTA, and 0.05% tween). After each concentration of CK2α was assessed, CK2α was removed using 4 mM and 5 mM Sodium Hydroxide for MOTS-c and K14Q MOTS-c, respectively. […]

A short description of data set [2]: Plasma MOTS-c levels after MOTS-c administration. In kind it is in vivo, mouse (C57BL/6J). As to conditions: single IP 7.5 mg/kg, young mice, n = 5 per time point. As to the method: Figure 3 MOTS-c modulates CK2 activity in a tissue-specific manner (A) Experimental design of a single MOTS-c administration (7.5 mg/kg) experiment in young mice (n = 5 per time point). (B) Plasma MOTS-c levels after MOTS-c administration. ∗: p < 0.05 versus time 0. (C) Quantification of CK2 activity assessed by western blotting in each tissue shown in ([…]). (E–F) CK2 activity assessed by western blotting with p-CK2 substrate antibody in gastrocnemius muscle (D), epididymal fat (E), and liver (F) after MOTS-c administration. ∗p < 0.05, ∗∗p < 0.01 versus time 0 in same tissue. (G–I) MOTS-c detection following CK2α immunoprecipitation (IP) in gastrocnemius muscle (G), epididymal fat (H), and liver (I) 30 min after MOTS-c administration (7.5 mg/kg). The "-" indicates tissues from non-MOTS-c administered mice, while the "+" indicates tissues from MOTS-c administered mice. (J–K) CK2 activity after 10 min MOTS-c treatment (10 μM) in differentiated skeletal muscle (J) and adipocyte (K). Data are represented as mean ± SEM for (B, C, J, and K).
Acute MOTS-c administration experiment: Male C57BL/6J mice at 10–12 weeks of age were randomly assigned to one of the experimental time points: 0 min, 15 min, 30 min, or 180 min. MOTS-c ([…]) was administered by intraperitoneal injection. At each time point, plasma was collected under anesthesia with isoflurane. […]

Molecules are shown by their SMILES. Peptide text beside a SMILES is read from it.

T1 sequence (P68400 whole entry): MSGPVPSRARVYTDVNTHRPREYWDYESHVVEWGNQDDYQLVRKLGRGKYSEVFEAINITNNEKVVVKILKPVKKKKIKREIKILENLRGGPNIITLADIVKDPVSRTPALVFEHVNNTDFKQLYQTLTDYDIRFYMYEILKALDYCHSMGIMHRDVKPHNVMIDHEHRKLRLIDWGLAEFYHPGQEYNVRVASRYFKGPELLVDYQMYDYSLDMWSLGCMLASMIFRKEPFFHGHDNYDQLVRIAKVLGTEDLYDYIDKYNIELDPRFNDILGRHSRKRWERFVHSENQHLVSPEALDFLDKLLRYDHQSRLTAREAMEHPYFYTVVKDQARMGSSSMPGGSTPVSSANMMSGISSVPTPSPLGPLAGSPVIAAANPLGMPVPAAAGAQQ

As to `O=C(O)c1ccc2c(c1)nc(Nc1cccc(Cl)c1)c1ccncc12` [CX-4945], in data set [1] (CX-4945 25 mg/kg + MOTS-c 7.5 mg/kg), the “Muscle glucose uptake, CK2 inhibitor co-administered with MOTS-c” value was “prevented the increase in muscle glucose uptake by MOTS-c”. Moreover, in data set [1] (CX-4945 25 mg/kg IP 2 h before insulin 0.75 U/kg, p = 0.053, n = 10-11 per group), the “Muscle glucose uptake with CK2 inhibitor alone” value is listed as “decreased muscle glucose uptake (p = 0.053)”. In the case of `CC[C@H](C)[C@H](NC(=O)[C@H](Cc1ccc(O)cc1)NC(=O)CNC(=O)[C@H](CCSC)NC(=O)[C@H](CCC(=O)O)NC(=O)[C@H](CCC(N)=O)NC(=O)[C@H](Cc1c[nH]c2ccccc12)NC(=O)[C@H](CCCNC(=N)N)NC(=O)[C@@H](N)CCSC)C(=O)N[C@@H](Cc1ccccc1)C(=O)N[C@@H](Cc1ccc(O)cc1)C(=O)N1CCC[C@H]1C(=O)N[C@@H](CCCNC(=N)N)C(=O)N[C@@H](CCC(N)=O)C(=O)N[C@@H](CC(C)C)C(=O)N[C@@H](CCCNC(=N)N)C(=O)O` [K14Q MOTS-c] (H-MRWQEMGYIFYPRQLR-OH), on CK2α, the “Reciprocal of KD” value is 0.062 nM⁻¹. Regarding `CC[C@H](C)[C@H](NC(=O)[C@H](Cc1ccc(O)cc1)NC(=O)CNC(=O)[C@H](CCSC)NC(=O)[C@H](CCC(=O)O)NC(=O)[C@H](CCC(N)=O)NC(=O)[C@H](Cc1c[nH]c2ccccc12)NC(=O)[C@H](CCCNC(=N)N)NC(=O)[C@@H](N)CCSC)C(=O)N[C@@H](Cc1ccccc1)C(=O)N[C@@H](Cc1ccc(O)cc1)C(=O)N1CCC[C@H]1C(=O)N[C@@H](CCCNC(=N)N)C(=O)N[C@@H](CCCCN)C(=O)N[C@@H](CC(C)C)C(=O)N[C@@H](CCCNC(=N)N)C(=O)O` [MOTS-c] (H-MRWQEMGYIFYPRKLR-OH), in data set [2], the “MOTS-c levels in plasma” value was “increased MOTS-c levels in plasma”. Further, the “Reciprocal of KD” value at CK2α came out at 1.0 nM⁻¹.
